Measurements: the supplement of paper PMC11451515

System: NOMO1
Experiment: cell viability relative to DMSO control; higher = less cytotoxic
Conditions: 48 h
In short: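 Viability is a per-plate percentage relative to DMSO wells, with cell-free wells as background. CellTiter-Glo One luminescence was read after 48 h at 37°C on 1536-well plates (5 μl) of NOMO1 or SEM (500 cells/well) or P12-Ichikawa (1000 cells/well) leukemia cells. The cells had been adapted for at least four passages in each medium and pin-dosed with library compounds in DMSO from 47 μM to 0.79 nM in 11 threefold steps.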

[1] = HPLM + 10% dialyzed FBS, 0.000781 µM
[2] = HPLM + 10% dialyzed FBS, 0.00234 µM
[3] = HPLM + 10% dialyzed FBS, 0.00702 µM
[4] = HPLM + 10% dialyzed FBS, 0.0211 µM
[5] = HPLM + 10% dialyzed FBS, 0.0632 µM
[6] = HPLM + 10% dialyzed FBS, 0.19 µM
[7] = HPLM + 10% dialyzed FBS, 0.569 µM
[8] = HPLM + 10% dialyzed FBS, 1.71 µM
[9] = HPLM + 10% dialyzed FBS, 5.12 µM
[10] = HPLM + 10% dialyzed FBS, 15.4 µM
[11] = HPLM + 10% dialyzed FBS, 46.1 µM
[12] = RPMI 5 mM glucose + 10% FBS, 0.000781 µM
[13] = RPMI 5 mM glucose + 10% FBS, 0.00234 µM
[14] = RPMI 5 mM glucose + 10% FBS, 0.00702 µM
[15] = RPMI 5 mM glucose + 10% FBS, 0.0211 µM
[16] = RPMI 5 mM glucose + 10% FBS, 0.0632 µM
[17] = RPMI 5 mM glucose + 10% FBS, 0.19 µM
[18] = RPMI 5 mM glucose + 10% FBS, 0.569 µM
[19] = RPMI 5 mM glucose + 10% FBS, 1.71 µM
[20] = RPMI 5 mM glucose + 10% FBS, 5.12 µM
[21] = RPMI 5 mM glucose + 10% FBS, 15.4 µM
[22] = RPMI 5 mM glucose + 10% FBS, 46.1 µM
[23] = RPMI 5 mM glucose + 10% dialyzed FBS, 0.000781 µM
[24] = RPMI 5 mM glucose + 10% dialyzed FBS, 0.00234 µM
[25] = RPMI 5 mM glucose + 10% dialyzed FBS, 0.00702 µM
[26] = RPMI 5 mM glucose + 10% dialyzed FBS, 0.0211 µM
[27] = RPMI 5 mM glucose + 10% dialyzed FBS, 0.0632 µM
[28] = RPMI 5 mM glucose + 10% dialyzed FBS, 0.19 µM
[29] = RPMI 5 mM glucose + 10% dialyzed FBS, 0.569 µM
[30] = RPMI 5 mM glucose + 10% dialyzed FBS, 1.71 µM
[31] = RPMI 5 mM glucose + 10% dialyzed FBS, 5.12 µM
[32] = RPMI 5 mM glucose + 10% dialyzed FBS, 15.4 µM
[33] = RPMI 5 mM glucose + 10% dialyzed FBS, 46.1 µM

| Structure (SMILES) | cell viability [1] | cell viability [2] | cell viability [3] | cell viability [4] | cell viability [5] | cell viability [6] | cell viability [7] | cell viability [8] | cell viability [9] | cell viability [10] | cell viability [11] | cell viability [12] | cell viability [13] | cell viability [14] | cell viability [15] | cell viability [16] | cell viability [17] | cell viability [18] | cell viability [19] | cell viability [20] | cell viability [21] | cell viability [22] | cell viability [23] | cell viability [24] | cell viability [25] | cell viability [26] | cell viability [27] | cell viability [28] | cell viability [29] | cell viability [30] | cell viability [31] | cell viability [32] | cell viability [33] |
| --- | --- | --- | --- | --- | --- | --- | --- | --- | --- | --- | --- | --- | --- | --- | --- | --- | --- | --- | --- | --- | --- | --- | --- | --- | --- | --- | --- | --- | --- | --- | --- | --- | --- |
| CCC(=O)N1CCN(CC1)C2=C(C=C(C=C2)N3C(=O)\C=C/C4=C3C5=CC(=CC=C5N=C4)C6=CN=C7C=CC=CC7=C6)C(F)(F)F | 93.9% | 94.4% | 89.2% | 90.8% | 83.2% | 75% | 61.4% | 71.8% | 72.7% | 69.2% | 67% | 98% | 96.7% | 96.9% | 104% | 90.4% | 79% | 72.7% | 68.2% | 62.3% | 64% | 63.7% | 77.6% | 100% | 86.3% | 86.5% | 82.5% | 77.6% | 68.3% | 60.8% | 57.6% | 57.4% | 54.7% |
| CCCCCN(C)CCC(O)(P(=O)([O-])O)P(=O)(O)O | 68.4% | 81.8% | 89% | 101% | 85.3% | 92.9% | 89.5% | 92.4% | 86% | 80% | 94% | 81.1% | 88.8% | 89.5% | 96.7% | 97.3% | 99.9% | 97.9% | 94.4% | 95% | 84.8% | 81.7% | 84.6% | 87.3% | 86.1% | 80% | 93.7% | 101% | 96.5% | 90.8% | 85.2% | 94.1% | 75% |
| CC[C@H](C)C(=O)O[C@H]1C[C@@H](C)\C=C2\C=C/[C@H](C)[C@H](CC[C@@H]3C[C@@H](O)CC(=O)O3)[C@@H]12 | 95.9% | 103% | 100% | 108% | 96.3% | 92.8% | 90.6% | 89.9% | 93.3% | 69.4% | 53.5% | 87.5% | 89.1% | 89.7% | 98.9% | 83.5% | 90% | 88.4% | 80.5% | 86.8% | 77.1% | 71.4% | 80.3% | 93% | 84.6% | 97% | 91.7% | 91% | 91.3% | 82% | 90.7% | 77.4% | 54.9% |
| CC(C)(C)NCC(O)c1ccc(O)c(CO)c1 (stereo not drawn) | 100% | 109% | 109% | 132% | 119% | 114% | 107% | 70.5% | 55.5% | 47.8% | 44.7% | 102% | 98.3% | 105% | 106% | 112% | 99.9% | 107% | 79.2% | 78.1% | 64.7% | 51.4% | 102% | 109% | 115% | 114% | 110% | 110% | 92.8% | 76.7% | 65.3% | 70.7% | 47% |
| C/C=C(\C)C(=O)N[C@@H](c1ccccc1)[C@@H](O)C(=O)O[C@H]1C[C@@]2(O)[C@@H](OC(=O)c3ccccc3)[C@@H]3[C@]4(OC(C)=O)CO[C@@H]4C[C@H](O)[C@@]3(C)C(=O)[C@H](OC(C)=O)C(=C1C)C2(C)C | 25.1% | 23.3% | 26.8% | 30.3% | 29.7% | 27.4% | 23.4% | 26.9% | 24.1% | 28.9% | 20.7% | 38.9% | 13.2% | 17.4% | 13.8% | 14.7% | 14.3% | 13% | 15.6% | 12.4% | 11.3% | 9.52% | 47.4% | 17.8% | 21.3% | 20.2% | 17.5% | 20.3% | 17.2% | 16.1% | 19.8% | 21.3% | 16.6% |
| OC[C@H]1OC(O)C[C@@H](O)[C@@H]1O (stereo partly drawn) | 110% | 113% | 127% | 125% | 125% | 128% | 121% | 135% | 109% | 122% | 52.4% | – | – | – | – | – | – | – | – | – | – | – | 109% | 118% | 128% | 125% | 137% | 123% | 120% | 142% | 128% | 129% | 68% |
| N#CC1(c2cccc(C(=O)Nc3cc(Oc4ccc5nc(NC(=O)C6CC6)sc5n4)ccc3F)c2Cl)CC1 | 105% | 121% | 114% | 113% | 119% | 93.8% | 91% | 56.6% | 39.2% | 18.2% | 18.2% | 115% | 113% | 107% | 100% | 103% | 105% | 104% | 76.7% | 48.8% | 10.7% | 10.6% | 118% | 123% | 96.5% | 98.2% | 98.7% | 90.6% | 72.9% | 70.1% | 53.9% | 16.9% | 15.6% |
| c1coc(CNc2ncnc3nc[nH]c23)c1 | 120% | 126% | 123% | 133% | 129% | 136% | 117% | 118% | 118% | 108% | 97.3% | 125% | 131% | 124% | 113% | 116% | 119% | 140% | 132% | 118% | 119% | 108% | 124% | 122% | 125% | 124% | 128% | 121% | 121% | 112% | 107% | 94.1% | 88.5% |
